Measurements reported in PubChem BioAssay AID1320 (NMMLSC, 2008).
The source made the active and inactive calls. How the calls were made is not given here.

Target: Bcl-2-related protein A1 (Homo sapiens) (UniProt Q16548)
Test: Bfl-1/Bim complex disruptors – biochemical, multiplexed, bead-based flow cytometry, dose response (AID 1320); on percent span (inhibition): test concentration not given here
Details: Bim peptide-Bfl-1 binding, fluorescence; for percent span (inhibition): active compounds read high

Sequence of Bcl-2-related protein A1 (Homo sapiens) (Q16548 whole entry, looked up): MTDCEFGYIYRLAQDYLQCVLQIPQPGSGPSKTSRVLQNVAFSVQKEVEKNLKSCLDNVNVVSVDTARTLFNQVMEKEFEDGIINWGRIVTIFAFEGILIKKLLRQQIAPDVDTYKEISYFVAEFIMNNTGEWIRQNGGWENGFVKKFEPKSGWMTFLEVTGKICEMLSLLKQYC

Row | Structure (SMILES) | percent span (inhibition) | EC50
1 | Cn1c(=O)c2c(nc(NCCO)n2CCc2ccccc2)n(C)c1=O | inactive | 
2 | CCN(CC)c1ccc(-c2nn3c(-c4cccnc4)nnc3s2)cc1 | inactive | 
3 | Cc1cccc(N2CCN(C(=S)Nc3ccc4nc(N5CCN(C)CC5)cc(C)c4c3)CC2)c1C | inactive | 
4 | Cn1c(N)c(C(=O)COC(=O)c2cncc(Br)c2)c(=O)n(C)c1=O | inactive | 
5 | Cc1cc[n+]2cc(-c3cccc([N+](=O)[O-])c3)c(-c3cccc([N+](=O)[O-])c3)cc2c1 | inactive | 
6 | Cc1ccc2c(C)c(C(=O)Nc3nnc(C)s3)oc2c1 | inactive | 
7 | Cc1ccc(Nc2nc(-c3c(C)nc4ncccn34)cs2)cc1 | inactive | 
8 | COc1ccccc1NC(=O)CSc1nnc(-c2ccco2)n1Cc1ccco1 | inactive | 
9 | COc1cccc(/C=N/Nc2nn3cnnc3c3ccccc23)c1 | inactive | 
10 | COC(=O)Cc1cc(=O)[nH]c(Nc2nc3ccccc3o2)n1 | inactive | 
11 | COc1ccc(/C=C/C(=O)Nc2sc(Cc3ccccc3)c(C)c2C(N)=O)cc1 | inactive | 
12 | CN1N=C(C(=O)N2CCCC(C(=O)c3cccc(C(F)(F)F)c3)C2)CCC1=O (configuration not stated) | inactive | 
13 | O=C(COc1ccc(Br)cc1CNC1CCCCC1)NCCc1ccccc1 | inactive | 
14 | Cc1ccccc1OCC(=O)N/N=C/c1ccccn1 | inactive | 
15 | Cc1nnc2ccc(-c3cccc(NC(=O)c4ccco4)c3)nn12 | inactive | 
16 | Cc1ccc(CC(=O)OCCNC(=O)c2cccnc2)cc1 | inactive | 
17 | Cc1cc(C)c2c(N)c3cccc(C)c3nc2n1 | inactive | 
18 | Cc1ccccc1-c1nc(-c2ccc(NC(=O)c3ccc4c(c3)OCO4)cc2)no1 | inactive | 
19 | Cc1nc(=S)c2ccccc2[nH]1 | inactive | 
20 | Cc1ccc(-c2cc(C(=O)Nc3ccccn3)c3ccccc3n2)o1 | inactive | 
21 | CCCn1c(N2CCN(C)CC2)nc2c1c(=O)[nH]c(=O)n2C | inactive | 
22 | CCn1c(SCC(=O)Nc2ccc(C)cc2)nnc1-c1ccc(O)cc1 | inactive | 
23 | COc1ccc(CC(=O)Nc2ccccc2Oc2ccccc2)cc1 | inactive | 
24 | CCCCC(C(=O)OCC)C(N)Cc1ccc(F)cc1 (configuration not stated) | inactive | 

Row | Structure (SMILES) | percent span (inhibition) | EC50
25 | CCNC(=S)Nc1cc(OCC)c(NC(=O)c2cccs2)cc1OCC | inactive | 
26 | Cc1ccc(N=c2ssnc2Cl)cc1 | inactive | 
27 | O=C(Cc1ccccc1)OCCNC(=O)c1cccnc1 | inactive | 
28 | C1=CC2c3ccccc3NC(c3ccncc3)C2C1 (configuration not stated) | inactive | 
29 | O=C(NCCN1CCOCC1)c1cc(Cl)ccc1[N+](=O)[O-] | inactive | 
30 | Nc1ccc(N2CCN(CCCCN3C(=O)C4CCCN4C3=O)CC2)cc1 (configuration not stated) | inactive | 
31 | CCOc1ccc(C2=Nn3c(nnc3-c3ccco3)SC2)cc1 | inactive | 
32 | O=C1N/C(=C/c2cccn2-c2ccccc2)C(=O)N1Cc1ccc(F)cc1 | inactive | 
33 | O=C(Cn1c(-c2ccccc2)noc1=O)N1CCC(Cc2ccccc2)CC1 | inactive | 
34 | CS(=O)(=O)NN1C(=O)c2ccccc2NC1c1cccc2cccnc12 (configuration not stated) | inactive | 
35 | CCCC1(C(=O)OCC)NC(c2cc(OC)c(OC)c(OC)c2)C2C(=O)N(CC)C(=O)C21 (configuration not stated) | inactive | 
36 | CCOc1ccc(C(=O)Nc2nnn(CC)n2)cc1 | inactive | 
37 | OC(COc1ccc2ccccc2c1)CN1CCCC1 (configuration not stated) | inactive | 
38 | Cc1cc(-c2nnc(CCC(=O)NC(C)c3cccc4ccccc34)o2)no1 (configuration not stated) | inactive | 
39 | Fc1ccc(/C=C2\CCCC3=C2NC(=S)NC3c2ccc(F)cc2)cc1 (configuration not stated) |  | inactive
40 | CN(C)c1ccc(C(=O)/C=C/c2ccc(Br)cc2)cc1 | inactive | 
41 | COc1cc(/C=C2\S/C(=N/S(=O)(=O)c3ccc(C)cc3)NC2=O)c([N+](=O)[O-])cc1OC | inactive | 
42 | Cc1cc2nc(/C(C#N)=C/c3ccncc3)[nH]c2cc1C | inactive | 
43 | CC(C)(C)C1CCC(=NNC(=O)c2cc3c(s2)CCCC3)CC1 (configuration not stated) | inactive | 
44 | CCCCOC(=O)c1nc(Cl)c(Cl)c(N)c1Cl | inactive | 
45 | Cc1cc(/C=C(/C#N)C(=O)Nc2ccc(Cl)cc2)c(C)n1-c1cccnc1 | inactive | 
46 | CCNC(=S)Nc1ccc(OCC)cc1 | inactive | 
47 | Cc1ccc(C)c(Oc2ncnc(N)c2[N+](=O)[O-])c1 | inactive | 
48 | O=C(OCc1nc2ccccc2[nH]1)C12CC3CC(CC(C3)C1)C2 | inactive | 

Row | Structure (SMILES) | percent span (inhibition) | EC50
49 | CCCCC(=O)Nc1ccc(C(=O)N2CCC(C(=O)OCC)CC2)cc1 | inactive | 
50 | CN(C)S(=O)(=O)N(CC(=O)Nc1ccccc1C(F)(F)F)c1ccccc1 | inactive | 
51 | COc1ccc(OC)c2sc(NC(=O)c3ccc(Br)s3)nc12 | inactive | 
52 | CSc1n[nH]c2nc3c(c(=O)n12)C1(CCCC1)Cc1ccccc1-3 | inactive | 
53 | Fc1ccccc1/C=C1\CCCC2=C1NC(=S)NC2c1ccccc1F (configuration not stated) | inactive | 
54 | Cc1cc(C)c(C)c(S(=O)(=O)N2CCN(CC(=O)NC(=O)NCc3ccccc3)CC2)c1C | inactive | 
55 | O=C(/C=C/c1c(F)cccc1Cl)Nc1ccncc1 | inactive | 
56 | Cc1ccc(-c2cc(C(=O)N3CCN(c4ncccn4)CC3)c3cc(Br)ccc3n2)o1 | inactive | 
57 | O=C1c2ccccc2C(=O)c2cc(S(=O)(=O)Nc3ccccc3)ccc21 | inactive | 
58 | Cc1nn(-c2ccc(Cl)c(Cl)c2)c(C)c1C(=O)O | inactive | 
59 | COC(=O)/C(=C/c1ccc(F)cc1)NC(C)=O | inactive | 
60 | O=C(CNC(=O)c1ccc(S(=O)(=O)N2CCCC2)cc1)N/N=C/c1ccc(Cl)cc1Cl | inactive | 
61 | Cc1cc(OCc2cn3cccnc3n2)ccc1Cl | inactive | 
62 | CCOCCCNc1nc(=S)[nH]c2cc(OC)c(OC)cc12 | inactive | 
63 | CCc1nnc(NS(=O)(=O)c2ccc(N=CC3=C(O)CC(C)(C)CC3=O)cc2)s1 | inactive | 
64 | CCN1CCN(c2ccc(NC(=O)c3cccc4ncccc34)cc2)CC1 | inactive | 
65 | O=C(C1CCC(Cn2c(=S)[nH]c3ccccc3c2=O)CC1)N1CCN(c2ccccn2)CC1 (configuration not stated) | inactive | 
66 | COC(=O)c1sc(NC(=O)c2ccc(Cn3cc(Cl)cn3)o2)c(C#N)c1C | inactive | 
67 | CCOC(=O)N1CCC(c2cc(=O)n(-c3ccccc3)[nH]2)CC1 | inactive | 
68 | COc1cc(/C=C2/NC(=O)N(Cc3ccccc3F)C2=O)ccc1O | inactive | 
69 | CC(C)NS(=O)(=O)c1ccc(OCC(=O)Nc2ccc(F)cc2)cc1 | inactive | 
70 | Fc1ccc(C2=Nn3c(Cc4ccccc4F)nnc3SC2)cc1 | inactive | 
71 | Clc1nssc1=Nc1ccccc1 | inactive | 
72 | CCOC(=O)C1=C(CC)Nc2ccccc2N=C1NC(=O)c1ccc(S(=O)(=O)N2CCOCC2)cc1 | inactive | 
